Measurements taken from patent US20260317324A1, “BIFUNCTIONAL COMPOUNDS FOR DEGRADING BRAF VIA UBIQUITIN PROTEOSOME PATHWAY” (Nurix Therapeutics, Inc., priority 2023, published 2026).

Target: T1, BRAF V600E (Homo sapiens, UniProt P15056, V600E)
T1 construct: endogenous C-terminal HiBiT fusion tag on BRAF V600E allele; endogenous in cells; host or cells: A375 clone 1F10 (CRISPR-Cas9 knock-in of the HiBiT tag; parental A375 from ATCC)
Test: BRAF HiBiT degradation assay, C-terminal HiBiT-tagged BRAF V600E A375 cells (clone 1F10), Nano-Glo HiBiT Lytic assay
Format: cell-based
Details: A375 (BRAF V600E); for DC50: DC50 at 50%: fitted conc. at Y=50; for Dmax: A-375, percentage protein degraded at maximal compound effect relative to DMSO
Summary of the method: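 Using CRISPR-engineered A375 cells that carry a C-terminal HiBiT tag on endogenous BRAF V600E, remaining protein was quantified by lytic luminescence relative to DMSO-treated cells, with wildtype A375 as the background control. DC50 denotes the concentration giving 50% degradation.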

T1 sequence (P15056 whole entry V600E, the tested form may be a part): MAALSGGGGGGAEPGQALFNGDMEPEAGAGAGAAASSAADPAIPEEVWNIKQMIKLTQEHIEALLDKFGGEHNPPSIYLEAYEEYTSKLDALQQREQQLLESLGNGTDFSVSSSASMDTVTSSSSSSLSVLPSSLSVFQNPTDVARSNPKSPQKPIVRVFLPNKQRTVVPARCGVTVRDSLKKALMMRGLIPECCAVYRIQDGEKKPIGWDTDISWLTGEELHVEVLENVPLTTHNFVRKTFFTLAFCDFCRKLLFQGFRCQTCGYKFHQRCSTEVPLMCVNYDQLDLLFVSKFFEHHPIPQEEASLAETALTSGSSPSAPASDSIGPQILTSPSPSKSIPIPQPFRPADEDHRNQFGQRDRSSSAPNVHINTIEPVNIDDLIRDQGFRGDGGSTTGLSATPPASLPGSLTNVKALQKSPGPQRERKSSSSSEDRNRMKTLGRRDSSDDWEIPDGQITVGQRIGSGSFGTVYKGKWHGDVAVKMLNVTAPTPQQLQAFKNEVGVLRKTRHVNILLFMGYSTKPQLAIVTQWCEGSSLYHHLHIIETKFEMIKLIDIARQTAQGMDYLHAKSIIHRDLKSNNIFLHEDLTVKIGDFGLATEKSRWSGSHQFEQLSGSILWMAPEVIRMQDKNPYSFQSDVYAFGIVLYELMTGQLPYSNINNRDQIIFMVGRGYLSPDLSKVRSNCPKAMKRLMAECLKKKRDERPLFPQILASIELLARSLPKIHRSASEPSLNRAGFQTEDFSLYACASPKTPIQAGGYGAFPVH

SMILES	DC50 [µM]	Dmax [%]
CCCS(=O)(=O)Nc1cccc(-c2nc(C(C)(C)C)sc2-c2ccnc(Nc3cccc(OC4CCN(C(=O)CN5CCN(c6cc(C7CCC(=O)NC7=O)ccn6)CC5)CC4)c3)n2)c1F (racemic) [Compound 93, Rac-N-{3-[2-tert-butyl-5-(2-{[3-({1-[2-(4-{4-[(3R)-2,6-dioxopiperidin-3-yl]pyridin-2-yl}piperazin-1-yl)acetyl]piperidin-4-yl}oxy)phenyl]amino}pyrimidin-4-yl)-1,3-thiazol-4-yl]-2-fluorophenyl}propane-1-sulfonamide]	0.01 to 0.05	30 to 70
CCCS(=O)(=O)Nc1cccc(-c2nc(C(C)(C)C)sc2-c2ccnc(Nc3cccc(OC4CCN(C(=O)C5CCN(c6ccc(C(=O)NC7CCC(=O)NC7=O)nc6)CC5)CC4)c3)n2)c1F (racemic) [Compound 95, Rac-5-[4-(4-{3-[(4-{2-tert-butyl-4-[2-fluoro-3-(propane-1-sulfonamido)phenyl]-1,3-thiazol-5-yl}pyrimidin-2-yl)amino]phenoxy}piperidine-1-carbonyl)piperidin-1-yl]-N-[(3R)-2,6-dioxopiperidin-3-yl]pyridine-2-carboxamide]	0.01 to 0.05	30 to 70
CCCS(=O)(=O)Nc1cccc(-c2nc(C(C)(C)C)sc2-c2ccnc(Nc3cccc(OC4CCN(C(=O)[C@H]5CC[C@H](Oc6ccc(C7CCC(=O)NC7=O)cc6)CC5)CC4)c3)n2)c1F (mixture of isomers) [Compound 98, N-{3-[2-tert-butyl-5-(2-{[3-({1-[(1r,4r)-4-{4-[(3RS)-2,6-dioxopiperidin-3-yl]phenoxy}cyclohexanecarbonyl]piperidin-4-yl}oxy)phenyl]amino}pyrimidin-4-yl)-1,3-thiazol-4-yl]-2-fluorophenyl}propane-1-sulfonamide]	0.01 to 0.05	30 to 70
CCCS(=O)(=O)Nc1cccc(-c2nc(C(C)(C)C)sc2-c2ccnc(Nc3cccc(OC4CCN(C(=O)C5CCN(c6cccc(C7CCC(=O)NC7=O)c6)CC5)CC4)c3)n2)c1F (racemic) [Compound 99, Rac-N-[3-(2-tert-butyl-5-{2-[(3-{[1-(1-{3-[(3R)-2,6-dioxopiperidin-3-yl]phenyl}piperidine-4-carbonyl)piperidin-4-yl]oxy}phenyl)amino]pyrimidin-4-yl}-1,3-thiazol-4-yl)-2-fluorophenyl]propane-1-sulfonamide]	0.01 to 0.05	30 to 70
CCCS(=O)(=O)Nc1cccc(-c2nc(C(C)(C)C)sc2-c2ccnc(Nc3cccc(OC4CCN(C(=O)CN5CCc6cc(C7CCC(=O)NC7=O)ccc6C5)CC4)c3)n2)c1F (racemic) [Compound 101, Rac-N-[3-(2-tert-butyl-5-{2-[(3-{[1-(2-{6-[(3R)-2,6-dioxopiperidin-3-yl]-1,2,3,4-tetrahydroisoquinolin-2-yl}acetyl)piperidin-4-yl]oxy}phenyl)amino]pyrimidin-4-yl}-1,3-thiazol-4-yl)-2-fluorophenyl]propane-1-sulfonamide]	0.01 to 0.05	> 70
CCCS(=O)(=O)Nc1cccc(-c2nc(C(C)(C)C)sc2-c2ccnc(Nc3cccc(C4CCN(C(=O)CN5CCC(c6ccc(NC7CCC(=O)NC7=O)cc6)CC5)CC4)c3)n2)c1F (racemic) [Compound 103, Rac-N-{3-[2-tert-butyl-5-(2-{[3-(1-{2-[4-(4-{[(3R)-2,6-dioxopiperidin-3-yl]amino}phenyl)piperidin-1-yl]acetyl}piperidin-4-yl)phenyl]amino}pyrimidin-4-yl)-1,3-thiazol-4-yl]-2-fluorophenyl}propane-1-sulfonamide]	0.01 to 0.05	30 to 70
CCCS(=O)(=O)Nc1cccc(-c2nc(C(C)(C)C)sc2-c2ccnc(Nc3cccc(C4CCN(C(=O)CN5CCc6cc(C7CCC(=O)NC7=O)ccc6C5)CC4)c3)n2)c1F (racemic) [Compound 104, Rac-N-(3-{2-tert-butyl-5-[2-({3-[1-(2-{6-[(3R)-2,6-dioxopiperidin-3-yl]-1,2,3,4-tetrahydroisoquinolin-2-yl}acetyl)piperidin-4-yl]phenyl}amino)pyrimidin-4-yl]-1,3-thiazol-4-yl}-2-fluorophenyl)propane-1-sulfonamide]	0.05 to 0.5	30 to 70
CCCS(=O)(=O)Nc1cccc(-c2nc(C(C)(C)C)sc2-c2ccnc(Nc3cnn(C4CCN(C(=O)C5CCN(c6ccc(C(=O)NC7CCC(=O)NC7=O)nc6)CC5)CC4)c3)n2)c1F (racemic) [Compound 107, Rac-5-[4-(4-{4-[(4-{2-tert-butyl-4-[2-fluoro-3-(propane-1-sulfonamido)phenyl]-1,3-thiazol-5-yl}pyrimidin-2-yl)amino]-1H-pyrazol-1-yl}piperidine-1-carbonyl)piperidin-1-yl]-N-[(3R)-2,6-dioxopiperidin-3-yl]pyridine-2-carboxamide]	0.01 to 0.05	30 to 70
CCCS(=O)(=O)Nc1cccc(-c2nc(C(C)(C)C)sc2-c2ccnc(Nc3cnn(CC4CCN(C(=O)CN5CCN(c6cc(C7CCC(=O)NC7=O)ccn6)CC5)CC4)c3)n2)c1F (racemic) [Compound 113, Rac-N-{3-[2-tert-butyl-5-(2-{[1-({1-[2-(4-{4-[(3R)-2,6-dioxopiperidin-3-yl]pyridin-2-yl}piperazin-1-yl)acetyl]piperidin-4-yl}methyl)-1H-pyrazol-4-yl]amino}pyrimidin-4-yl)-1,3-thiazol-4-yl]-2-fluorophenyl}propane-1-sulfonamide]	0.01 to 0.05	> 70
CCCS(=O)(=O)Nc1cccc(-c2nc(C(C)(C)C)sc2-c2ccnc(Nc3cnn(CC4CCN(C(=O)C5CCN(c6ccc(C(=O)NC7CCC(=O)NC7=O)nc6)CC5)CC4)c3)n2)c1F (racemic) [Compound 115, Rac-5-{4-[4-({4-[(4-{2-tert-butyl-4-[2-fluoro-3-(propane-1-sulfonamido)phenyl]-1,3-thiazol-5-yl}pyrimidin-2-yl)amino]-1H-pyrazol-1-yl}methyl)piperidine-1-carbonyl]piperidin-1-yl}-N-[(3R)-2,6-dioxopiperidin-3-yl]pyridine-2-carboxamide]	0.05 to 0.5	30 to 70
CCCS(=O)(=O)Nc1cccc(-c2nc(C(C)(C)C)sc2-c2ccnc(Nc3ccc4c(c3)CCN(C(=O)CN3CCN(c5cc(C6CCC(=O)NC6=O)ccn5)CC3)C4)n2)c1F (racemic) [Compound 120, Rac-N-(3-{2-tert-butyl-5-[2-({2-[2-(4-{4-[(3R)-2,6-dioxopiperidin-3-yl]pyridin-2-yl}piperazin-1-yl)acetyl]-1,2,3,4-tetrahydroisoquinolin-6-yl}amino)pyrimidin-4-yl]-1,3-thiazol-4-yl}-2-fluorophenyl)propane-1-sulfonamide]	0.05 to 0.5	30 to 70
CCCS(=O)(=O)Nc1cccc(-c2nc(C(C)(C)C)sc2-c2ccnc(Nc3ccc4c(c3)CCN(C(=O)C3CCN(c5ccc(C(=O)NC6CCC(=O)NC6=O)nc5)CC3)C4)n2)c1F (racemic) [Compound 122, Rac-5-(4-{6-[(4-{2-tert-butyl-4-[2-fluoro-3-(propane-1-sulfonamido)phenyl]-1,3-thiazol-5-yl}pyrimidin-2-yl)amino]-1,2,3,4-tetrahydroisoquinoline-2-carbonyl}piperidin-1-yl)-N-[(3R)-2,6-dioxopiperidin-3-yl]pyridine-2-carboxamide]	–	30 to 70
CCN(C)S(=O)(=O)Nc1cccc(-c2nc(C(C)(C)C)sc2-c2ccnc(Nc3ccc(N4CCN(C(=O)[C@H]5CC[C@H](CN6CCc7ccc(C8CCC(=O)NC8=O)cc7C6)CC5)CC4)cn3)n2)c1F (mixture of isomers) [Compound 124, Rac-(3S)-3-(2-{[(1r,4r)-4-{4-[6-({4-[2-tert-butyl-4-(3-{[ethyl(methyl)sulfamoyl]amino}-2-fluorophenyl)-1,3-thiazol-5-yl]pyrimidin-2-yl}amino)pyridin-3-yl]piperazine-1-carbonyl}cyclohexyl]methyl}-1,2,3,4-tetrahydroisoquinolin-7-yl)piperidine-2,6-dione]	0.05 to 0.5	30 to 70
CCCS(=O)(=O)Nc1cccc(-c2nc(C(C)(C)C)sc2-c2ccnc(NC3CC4(CCN(C[C@H]5CC[C@H](Oc6ccc(C7CCC(=O)NC7=O)cc6)CC5)CC4)C3)n2)c1F (mixture of isomers) [Compound 130, N-[3-(2-tert-butyl-5-{2-[(7-{[(1r,4r)-4-{4-[(3RS)-2,6-dioxopiperidin-3-yl]phenoxy}cyclohexyl]methyl}-7-azaspiro[3.5]nonan-2-yl)amino]pyrimidin-4-yl}-1,3-thiazol-4-yl)-2-fluorophenyl]propane-1-sulfonamide]	> 0.5	30 to 70
CCCS(=O)(=O)Nc1cccc(-c2nc(C(C)(C)C)sc2-c2ccnc(NC3CC4(CCN(C(=O)CN5CCN(c6ccc7c(c6)C(=O)N(C6CCC(=O)NC6=O)C7=O)CC5)CC4)C3)n2)c1F (racemic) [Compound 132, Rac-N-(3-{2-tert-butyl-5-[2-({7-[2-(4-{2-[(3R)-2,6-dioxopiperidin-3-yl]-1,3-dioxo-2,3-dihydro-1H-isoindol-5-yl}piperazin-1-yl)acetyl]-7-azaspiro[3.5]nonan-2-yl}amino)pyrimidin-4-yl]-1,3-thiazol-4-yl}-2-fluorophenyl)propane-1-sulfonamide]	0.01 to 0.05	30 to 70
CCCS(=O)(=O)Nc1cccc(-c2nc(C(C)(C)C)sc2-c2ccnc(N[C@H]3CC[C@H](N4CCN(CC5CCN(c6ccc(C7CCC(=O)NC7=O)cn6)CC5)CC4)CC3)n2)c1F (mixture of isomers) [Compound 135, N-{3-[2-tert-butyl-5-(2-{[(1r,4r)-4-{4-[(1-{5-[(3RS)-2,6-dioxopiperidin-3-yl]pyridin-2-yl}piperidin-4-yl)methyl]piperazin-1-yl}cyclohexyl]amino}pyrimidin-4-yl)-1,3-thiazol-4-yl]-2-fluorophenyl}propane-1-sulfonamide]	0.05 to 0.5	30 to 70
